Source: patent publication US20240109934A1, “ANTIBIOTICS WITH IMPROVED DRUG RESISTANCE PROFILE” (priority 2021, published 2024)
≈ marks a conversion by molar mass, not a printed value. Read-outs that look alike come from different tables or passages of the source.

Tests used:
S. aureus 29213 = experiment: MIC shift with 50% human serum; format: cell-based; settings: S. aureus 29213, 50% human serum vs none
Experimental: Antimicrobial Susceptibility Tests. Susceptibility testing was performed in biological triplicate, using the micro-dilution broth method as outlined by the Clinical and Laboratory Standards Institute. […] Human serum (Ultrafiltrate, unspecified gender, 30K Dalton membrane filtered) was purchased from BioIVT (Hicksville, NY).

[1] = tested on: human foreskin fibroblasts (HFF-1); experiment: Cell viability, Alamar Blue assay; format: cell-based; settings: 72 h incubation, error SEM n = 2, read-out: IC50, Mammalian Toxicity in HFF-1
Experimental: Cell Culture. HFF-1 cells were obtained from ATCC. HFF-1 cells were grown in DMEM with 15% fetal bovine serum (Gemini Benchmark, Cat #100-106), 100 U/mL penicillin, and 100 μg/mL streptomycin. All cells were cultured at 37° C. in a 5% CO2 environment. Media was prepared by the University of Illinois School of Chemical Sciences Cell Media Facility.
Cell Viability. Cells were harvested, seeded in a 96 well-plate and allowed to adhere. Cells were treated with investigational compounds in DMSO (1% final concentration). Cells were incubated for 72 h before viability was assessed by the Alamar Blue Assay. Raptinal ([…]) was used as a dead control.

S. aureus ATCC 29213 [2] = experiment: Resistance frequency, large inoculum method; format: cell-based
Experimental: Selection of Resistant Mutants. Resistant mutants were selected via the large inoculum method. Briefly, S. aureus ATCC 29213 (1×10^9 CFU) were plated on 100 mm plates of LB agar containing 4, 2, 1, 0.5, and 0.25 μg/mL.

[3] = Mouse liver microsome stability assay; format: in vitro ADME; settings: 3 h at 37° C., LC-MS/MS, ± SEM of 3 biological replicates
Experimental: Mouse Liver Microsome Stability Assay. A mixture of PBS (pH 7.4), NADPH regenerating system solution A (Corning Life Sciences), and NADPH regenerating system solution B (Corning Life Sciences) was incubated at 37° C. in a shaking incubator for 5 min. Next, compound was added in DMSO (final concentration 50 μM, 0.5% DMSO) before ice-cold mouse liver microsomes (Thermo Fisher, male CD-1 mice, pooled) were added (final protein concentration of 1 mg/mL). An aliquot was immediately removed, quenched with an equal volume of 100 μM internal standard and centrifuged at 13,000 rcf for 3 min. The reactions were incubated at 37° C. in a shaking incubator for 3 h. A second aliquot was removed and quenched. Samples were analyzed with the 5500 QTRAP LC/MS/MS system (Sciex, Framingham, MA) in Metabolomics Lab of Roy J. Carver Biotechnology Center, University of Illinois at Urbana-Champaign. Software Analyst 1.6.2 was used for data acquisition and analysis. The 1200 series HPLC system (Agilent Technologies, Santa Clara, CA) includes a degasser, an autosampler, and a binary pump. The LC separation was performed on an Agilent Sb-Aq column (4.6×50 mm, […]) with mobile phase A (0.1% formic acid in water) and mobile phase B (0.1% formic acid in acetonitrile). The flow rate was 0.3 mL/min. The linear gradient was as follows: 0-3 min, 100% A; 10-16 min, 5% A; 16.5-22 min, 100% A. The autosampler was set at 10° C. The injection volume was 1 μL. Mass spectra were acquired under both positive (ion spray voltage was +5500 V) and negative (ion spray voltage was −4500 V) electrospray ionization (ESI). The source temperature was 450° C. The curtain gas, ion source gas 1, and ion source gas 2 were 33, 65, and 60 psi, respectively. Multiple reaction monitoring (MRM) was used for quantitation.

S. aureus ATCC 29213 [4] = experiment: MIC by micro-dilution broth method (CLSI); format: cell-based
Mouse MTD / tolerability = settings: mouse, in vivo, ip, 50 mg/kg
Experimental: The protocol was approved by the IACUC at the University of Illinois at Urbana-Champaign (Protocol Number: 16144 and 19181). In these studies, 10- to 12-week-old female C57BL/6 mice purchased from Charles River were used. The maximum tolerated dose (MTD) of single compound was determined first. […] All the mice were monitored for signs of toxicity for 2 weeks. For multiple doses, the compound was given by daily IP for 4 consecutive days, and mice were monitored for signs of toxicity for 1 month. MTD was the highest dosage with acceptable toxicity (e.g., <20% weight loss).

| Compound | Fold Change Increase in MIC with 50% Human Serum (S. aureus 29213) [X] | IC50 [1] [µM] | IC50 ([1]; Homo sapiens, HFF-1, 72 h) [µM] | Resistance frequency relative to FA (S. aureus ATCC 29213 [2]; head-to-head with FA, 2×-32× the MIC) | Resistance frequency relative to FA (S. aureus ATCC 29213 [2]; only at 32× the MIC) | Metabolic Stability in Mouse Liver Microsomes (percent remaining) [3] [%] | Antibacterial activity relative to FA (S. aureus ATCC 29213 [4]; S. aureus ATCC 29213 MIC) | MIC (S. aureus ATCC 29213 [4]; Staphylococcus aureus, ATCC29213, WT S. aureus ATCC 29213, n = 3, read-out: MIC Without Human Serum) [µg/mL] | Tolerability (Mouse MTD / tolerability) |
| --- | --- | --- | --- | --- | --- | --- | --- | --- | --- |
| CC(=O)O[C@H]1C[C@@]2(C)[C@@H](C[C@@H](O)[C@H]3[C@@]4(C)CC[C@@H](O)[C@@H](C)[C@@H]4CC[C@@]32C)/C1=C(\CCC=C1CCCCC1)C(=O)O [Compound 26, (Z)-2-((3R,4S,5S,8S,9S,10S,11R,13R,14S,16S)-16-acetoxy-3,11-dihydroxy-4,8,10,14-tetramethylhexadecahydro-17H-cyclopenta[a]phenanthren-17-ylidene)-5-cyclohexylidenepentanoic acid] | 16 | 53 ± 4 | > 50 | improvement in resistance frequency relative to FA | improvement | 61 ± 1 | equipotent activity to FA | 0.125 (≈ 0.225 µM) | – |
| CC(=O)O[C@H]1C[C@@]2(C)[C@@H](C[C@@H](O)[C@H]3[C@@]4(C)CC[C@@H](O)[C@@H](C)[C@@H]4CC[C@@]32C)/C1=C(\CCC=C(C)C)C(=O)O [Sodium fusidate, reference compound] | – | – | – | – | – | – | – | – | well tolerated |
